Test results: patent publication US20130053305A1, “PEPTIDE COMPOUNDS THAT CAN BE USED AS ANTIBACTERIAL AGENTS” (UNIVERSIDAD DE BARCELONA, priority 2010, published 2013)
Where two headings read alike, the source gives them in different places. Positions of bridges follow the written chain, without caps; N, C: chain ends. Non-standard residues stand in square brackets, D forms with d. Residues, ends and D or L forms follow the SMILES beside them. *: point of attachment. Nonanoyl = CCCCCCCCC(=O)*; X1 = CC[C@H](C)CCCCC(=O)*; Dab = NCC[C@H](N)C(=O)O

How the values were obtained:
[1] = system: Mycobacterium phlei ATCC 41423; type: cell-based
Procedure: (§1) The antibacterial activity of the lipopeptides was measured in sterile 96-well plates (Corning Costar 3598 microtiter plates). Samples of a final volume of 200 μL were prepared as follows: aliquots (100 μL) of a suspension containing bacteria at a concentration of 10^5 colony-forming units/mL in culture medium (MH, Muller Hinton Broth, Difco, USA), adjusted at pH 7.4, were added to 100 μL of solution containing the peptide prepared from a stock solution of 1 mg/mL peptide in water in serial 2-fold dilutions in MH broth adjusted to pH 7.4 (Jorgensen and Turnide, 2003).
(§2) Inhibition of bacterial growth was determined by measuring the absorbance at 492 nm with a Absorbance Microplate reader ELx 800 (Bio-tek Instruments) after an incubation of 24-48 h at 37° C. Antibacterial activities are expressed as the MIC, the concentration at which no growth is observed after 24-48 h of incubation.
(§3) Microorganisms were cultured on Tryptycase Soy Broth (Pronadisa, Barcelona) and incubated at 37° C. until bacterial growth was observed. Then a loopful was streaked on Trypticase Soy Agar (Pronadisa, Barcelona) and incubated at 37° C. until colony formation occurred. Microorganisms were preserved on cryobilles (EAS laboratoire, France) at −20° C.
(§4) Bacterial strains used for the antibacterial activity tests were obtained from the American Type Culture Collection (ATCC, Rockville, Md., USA): […]

[2] = system: Staphylococcus aureus ATCC 6538; type: cell-based
Procedure: as §1, §2, §3, §4

[3] = system: Microccous luteus ATCC 9341; type: cell-based, Micrococcus luteus
Procedure: as §1, §2, §3, §4

[4] = system: Escherichia coli ATCC 8739; type: cell-based
Procedure: as §1, §2, §3
(§5) Bacterial strains used for the antibacterial activity tests were obtained from the American Type Culture Collection (ATCC, Rockville, Md., USA):
(§6) Escherichia coli ATCC 8739 Pseudomonas aeruginosa ATCC 9027 Salmonella typhimurium ATCC 14028

[5] = system: Pseudomonas aeruginosa ATCC 9027; type: cell-based
Procedure: as §1, §2, §3, §5, §6

[6] = system: Salmonella typhimurium ATCC 14028; type: cell-based
Procedure: as §1, §2, §3, §5, §6

[7] = system: Acinetobacter sp ATCC 5798; type: cell-based
Procedure: as §1, §2, §3, §5
Acinetobacter sp ATCC 5798

Gram positive bacteria = assay: Antibacterial test, summary for Gram positive bacteria; type: cell-based; details: summary in words
Procedure: as §1, §2, §3, §4

[8] = MH broth pH 7.4, 24-48 h at 37° C.
[9] = Table 1 values displayed in micromolar units
[10] = Table 2 values displayed in micromolar units

## CCCCCCCCC(=O)N[C@@H](CCCNC(=N)N)C(=O)N[C@H](C(=O)N[C@@H](CCN)C(=O)N[C@H]1CCNC(=O)[C@H]([C@@H](C)O)NC(=O)[C@H](CCN)NC(=O)[C@H](CCCNC(=N)N)NC(=O)[C@H](CC(C)C)NC(=O)[C@@H](Cc2ccccc2)NC(=O)[C@H](CCN)NC1=O)[C@@H](C)O [(Ia1), nonanoyl-Arg-Thr-Dab-cyclo(4-10)[Dab-Dab-DPhe-Leu-Arg-Dab-Thr]] (Nonanoyl-RT[Dab][Dab][Dab][dF]LR[Dab]T; lactam 4-C)
[1]; ATCC 41423
  MIC Micobacterium phlei: 6.08 to 12.16 µM
[1]; ATCC 41423, pH 7.4
  MIC Micobacterium phlei: 8 to 16 µg/mL
[2]; ATCC 6538
  MIC Staphylococcus aureus: 24.32 µM
[2]; [8]
  MIC Staphylococcus aureus: 32 µg/mL
[3]; ATCC 9341
  MIC Micrococcus luteus: 12.16 µM
[3]; [8]
  MIC Micrococcus luteus: 16 µg/mL
[4]; ATCC 8739
  MIC Escherichia coli 8739: 3.04 µM
[4]; [8]
  MIC Escherichia coli 8739: 4 µg/mL
[5]; ATCC 9027
  MIC Pseudomonas aeruginosa 9027: 3.04 µM
[5]; [8]
  MIC Pseudomonas aeruginosa 9027: 4 µg/mL
[6]; ATCC 14028
  MIC Salmonella typhimurium 14028: 6.08 to 12.16 µM
[6]; ATCC 14028, pH 7.4
  MIC Salmonella typhimurium 14028: 8 to 16 µg/mL
[7]; ATCC 5798
  MIC Acinetobacter sp ATCC 5798: 6.08 µM
[7]; [8]
  MIC Acinetobacter sp ATCC 5798: 8 µg/mL

## CCCCCCCCC(=O)N[C@@H](CCCNC(=N)N)C(=O)N[C@H](C(=O)N[C@@H](CCN)C(=O)N[C@H]1CSSC[C@@H](C(=O)NCC(=O)N[C@@H](CCCNC(=N)N)C(=O)N[C@H](C(=O)N[C@@H](CCC(=O)O)C(=O)N[C@H](C(=O)N[C@@H](CC(C)C)C(=O)N[C@@H](Cc2ccc(O)cc2)C(=O)N[C@@H](CCCNC(=N)N)C(=O)NCC(=O)N[C@@H](CO)C(=O)N[C@@H](Cc2c[nH]c3ccccc23)C(N)=O)C(C)C)C(C)C)NC(=O)[C@H](CCN)NC(=O)[C@H](CCCNC(=N)N)NC(=O)[C@H](CC(C)C)NC(=O)[C@@H](Cc2ccccc2)NC(=O)[C@H](CCN)NC1=O)[C@@H](C)O [(Ib3)] (Nonanoyl-RT[Dab]C[Dab][dF]LR[Dab]CGRVEVLYRGSW-NH2; disulfide 4-10)
[1]; ATCC 41423
  MIC Micobacterium phlei: 6.06 µM
[1]; [8]
  MIC Micobacterium phlei: 16 µg/mL
[2]; ATCC 6538
  MIC Staphylococcus aureus: 6.06 µM
[2]; [8]
  MIC Staphylococcus aureus: 16 µg/mL
[3]; ATCC 9341
  MIC Micrococcus luteus: 3.03 to 6.06 µM
[3]; ATCC 9341, pH 7.4
  MIC Micrococcus luteus: 8 to 16 µg/mL
[4]; ATCC 8739
  MIC Escherichia coli 8739: 6.06 µM
[4]; [8]
  MIC Escherichia coli 8739: 16 µg/mL
[5]; ATCC 9027
  MIC Pseudomonas aeruginosa 9027: >12.12 µM
[5]; ATCC 9027, pH 7.4
  MIC Pseudomonas aeruginosa 9027: >32 µg/mL
[6]; ATCC 14028
  MIC Salmonella typhimurium 14028: 6.06 µM
[6]; [8]
  MIC Salmonella typhimurium 14028: 16 µg/mL
[7]; ATCC 5798
  MIC Acinetobacter sp ATCC 5798: 1.51 µM
[7]; [8]
  MIC Acinetobacter sp ATCC 5798: 4 µg/mL

## CCCCCCCCC(=O)N[C@@H](CCCNC(=N)N)C(=O)N[C@H](C(=O)N[C@@H](CCN)C(=O)N[C@H]1CSSC[C@@H](C(=O)N[C@@H](CC(C)C)C(=O)N[C@@H](CCSC)C(=O)N[C@@H](Cc2c[nH]c3ccccc23)C(=O)N[C@@H](Cc2c[nH]c3ccccc23)C(=O)N[C@@H](CCSC)C(=O)N[C@@H](CC(C)C)C(N)=O)NC(=O)[C@H](CCN)NC(=O)[C@H](CCCNC(=N)N)NC(=O)[C@H](CC(C)C)NC(=O)[C@@H](Cc2ccccc2)NC(=O)[C@H](CCN)NC1=O)[C@@H](C)O [(Ib6), nonanoyl-Arg-Thr-Dab-cyclo(S—S)[Cys-Dab-DPhe-Leu-Arg-Dab-Cys]-Leu-Met-Trp-Trp-Met-Leu] (Nonanoyl-RT[Dab]C[Dab][dF]LR[Dab]CLMWWML-NH2; disulfide 4-10)
[1]; ATCC 41423
  MIC Micobacterium phlei: >14.56 µM
[1]; ATCC 41423, pH 7.4
  MIC Micobacterium phlei: >32 µg/mL
[2]; ATCC 6538
  MIC Staphylococcus aureus: 7.28 µM
[2]; [8]
  MIC Staphylococcus aureus: 16 µg/mL
[3]; ATCC 9341
  MIC Micrococcus luteus: 3.64 µM
[3]; [8]
  MIC Micrococcus luteus: 8 µg/mL
[4]; ATCC 8739
  MIC Escherichia coli 8739: >14.56 µM
[4]; ATCC 8739, pH 7.4
  MIC Escherichia coli 8739: >32 µg/mL
[5]; ATCC 9027
  MIC Pseudomonas aeruginosa 9027: >14.56 µM
[5]; ATCC 9027, pH 7.4
  MIC Pseudomonas aeruginosa 9027: >32 µg/mL
[6]; ATCC 14028
  MIC Salmonella typhimurium 14028: >14.56 µM
[6]; ATCC 14028, pH 7.4
  MIC Salmonella typhimurium 14028: >32 µg/mL
[7]; ATCC 5798
  MIC Acinetobacter sp ATCC 5798: 3.64 to 7.28 µM
[7]; ATCC 5798, pH 7.4
  MIC Acinetobacter sp ATCC 5798: 8 to 16 µg/mL

## CCCCCCCCC(=O)N[C@@H](CCCNC(=N)N)C(=O)N[C@H](C(=O)N[C@@H](CCN)C(=O)N[C@H]1CSSC[C@H](C(N)=O)NC(=O)[C@H](CCN)NC(=O)[C@H](CCCNC(=N)N)NC(=O)[C@H](CC(C)C)NC(=O)[C@@H](Cc2ccccc2)NC(=O)[C@H](CCN)NC1=O)[C@@H](C)O [(Ib13), nonanoyl-Arg-Thr-Dab-cyclo(S—S)[Cys-Dab-DPhe-Leu-Arg-Dab-DCys]] (Nonanoyl-RT[Dab]C[Dab][dF]LR[Dab][dC]-NH2; disulfide 4-10)
[1]; ATCC 41423
  MIC Micobacterium phlei: 5.99 to 11.98 µM
[1]; ATCC 41423, pH 7.4
  MIC Micobacterium phlei: 8 to 16 µg/mL
[2]; ATCC 6538
  MIC Staphylococcus aureus: 11.98 µM
[2]; [8]
  MIC Staphylococcus aureus: 16 µg/mL
[3]; ATCC 9341
  MIC Micrococcus luteus: 5.99 µM
[3]; [8]
  MIC Micrococcus luteus: 8 µg/mL
[4]; ATCC 8739
  MIC Escherichia coli 8739: 5.99 µM
[4]; [8]
  MIC Escherichia coli 8739: 8 µg/mL
[5]; ATCC 9027
  MIC Pseudomonas aeruginosa 9027: 2.99 µM
[5]; [8]
  MIC Pseudomonas aeruginosa 9027: 4 µg/mL
[6]; ATCC 14028
  MIC Salmonella typhimurium 14028: 11.98 µM
[6]; [8]
  MIC Salmonella typhimurium 14028: 16 µg/mL
[7]; ATCC 5798
  MIC Acinetobacter sp ATCC 5798: 11.98 µM
[7]; [8]
  MIC Acinetobacter sp ATCC 5798: 16 µg/mL

## CC[C@H](C)CCCCC(=O)N[C@@H](CCN)C(=O)N[C@H](C(=O)N[C@@H](CCN)C(=O)N[C@H]1CCNC(=O)[C@H]([C@@H](C)O)NC(=O)[C@H](CCN)NC(=O)[C@H](CCN)NC(=O)[C@H](CC(C)C)NC(=O)[C@@H](Cc2ccccc2)NC(=O)[C@H](CCN)NC1=O)[C@@H](C)O [PxB, (S)-6-methyloctanoyl-Dab-Thr-Dab-cyclo(4-10)[Dab-Dab-DPhe-Leu-Dab-Dab-Thr], reference compound] (X1-[Dab]T[Dab][Dab][Dab][dF]L[Dab][Dab]T; lactam 4-C)
[1]; [8]
  MIC Micobacterium phlei: 32 µg/mL
[1]; [9]
  MIC Micobacterium phlei: 26.90 µM
[2]; [8]
  MIC Staphylococcus aureus: >32 µg/mL
[2]; [9]
  MIC Staphylococcus aureus: >26.90 µM
[3]; [8]
  MIC Micrococcus luteus: 32 µg/mL
[3]; [9]
  MIC Micrococcus luteus: 26.90 µM
[4]; [8]
  MIC Escherichia coli 8739: 1 to 2 µg/mL
[4]; [10]
  MIC Escherichia coli 8739: 0.84 to 1.68 µM
[5]; [8]
  MIC Pseudomonas aeruginosa 9027: 2 µg/mL
[5]; [10]
  MIC Pseudomonas aeruginosa 9027: 1.68 µM
[6]; [8]
  MIC Salmonella typhimurium 14028: 1 µg/mL
[6]; [10]
  MIC Salmonella typhimurium 14028: 0.84 µM
[7]; [8]
  MIC Acinetobacter sp ATCC 5798: 0.5 µg/mL
[7]; [10]
  MIC Acinetobacter sp ATCC 5798: 0.42 µM
Gram positive bacteria
  antibacterial activity in Gram positive bacteria: does not show activity against Gram positive bacteria
